Experimental data published in patent US10363229B2, “Methods and compositions for the treatment of cancer” (priority 2009, dated 2019).

What was measured:
[1] = tested on: M3 Cloudman melanoma cells; assay: Live cell video microscopy of melanoma cells (morphology, contact inhibition); assay type: cell-based, mouse; conditions: equimolar concentration substituted for 2% methyl sulfone
Procedure: (§1) Cloudman S-91 mouse melanoma cells (sub-clone M-3, CCL 53.1; American Type Culture Collection, Rockville, Md.) were grown in RMPI medium supplemented with 10% fetal bovine serum (Invitrogen, Inc) and 5% penicillin-streptomycin (Invitrogen, Inc). Mouse breast cancer cells (66Cl-1; American Type Culture Collection, Rockville, Md.) that are estrogen-receptor negative were grown in DMEM medium supplemented with 10% fetal bovine serum (Invitrogen, Inc) and 5% penicillin/streptomycin (Invitrogen, Inc). Human T-cell leukemic lymphocytes (CEM; American Type Culture Collection, Rockville, Md.) were grown in MEM medium supplemented with 7% fetal calf serum. Cultures were passaged twice a week.
Cells were plated on 35 mm tissue culture dishes at concentration of 10^5 cells/plate, unless stated otherwise, and incubated at 37° C., 5% CO2. After 24 hours, methyl sulfone (0-10% in medium) was added to appropriate plates and immediately videotaped with a Nikon TE300 inverted microscope equipped with a 10×0.25 NA Plan Achromat objective lens. Control cells (no drug) were videotaped as described above. Time series (10 min) of phase contrast images were acquired at a video rate of 1 frame/5 s with a Watec-902B CCD video camera (Watec Corp., Japan) via the stream acquisition option of Metamorph image acquisition and analysis software (Universal Imaging Corp., Downington, Pa.). During recordings, cells were kept at 37° C. with 10 mM Hepes, pH 7.4. Time series of cells +/−2% methyl sulfone were obtained every 24-48 hours for up to 6 weeks.
(§2) M3 Cloudman melanoma cells were plated into culture dishes containing RPMI medium. After 24 hour media was changed to control medium (no drug) or to media containing different concentrations of methyl sulfone (1-10% methyl sulfone in RPMI medium). Cells were examined by live cell video microscopy immediately after adding drug and every 24 hours up to 144 hours.
The possibility that the data generated from treating cells with methyl sulfone was a nonspecific effect due to changes in extracellular osmolarity was considered. To test this possibility an equimolar concentration of urea was substituted for 2% methyl sulfone; urea has a chemical structure and dipolar moment that is similar to methyl sulfone. […] We next replaced 2% methyl sulfone with an equimolar concentration of dimethyl sulfoxide (DMSO).

[2] = tested on: Cloudman S-91 mouse melanoma cells (sub-clone M-3); assay: Annexin V-FITC/propidium iodide apoptosis assay in melanoma cells; assay type: cell-based
Procedure: as §1
Early and late apoptosis was assessed with the Annexin V-FITC Apoptosis Detection Kit from PharMingen (Becton-Dickinson, San Diego, Calif.). Images were obtained at the Center for Cell Analysis and Modeling, University of Connecticut Health Center, Farmington, Conn., with an Axioplan CCD Microscope equipped with a 40×1.3 NA FL objective lens and Photometrics PXL-EEV37 high speed digital cooled CCD camera via Metamorph image acquisition and analysis software (Universal Imaging Corp., Downington, Pa.).
as §2
Briefly, melanoma cells (Cloudman M3 cell line) were plated at 10^5 cells/ml in RPMI medium. After 24 hours, medium was replaced with RPMI containing different concentrations (grams/volume) of MMS, MES and EES. After 24 hours, apoptosis was assayed using the Becton-Dickinson Annexin V-FITC/Propidium Iodide Kit and a Nikon fluorescent microscope as described by the manufacturer.

[3] = tested on: microtubules in melanoma cells; assay: Immunofluorescence of microtubules, incl. vinblastine stability test; assay type: cell-based, mouse; conditions: 10^−7 M vinblastine, no methyl sulfone
Procedure: Cells were plated in 6-100 mm tissue culture plates, each containing 1 polylysine-coated 10-well slide, or plated onto polylysine-coated coverslips. Once cells were approximately 50% confluent, 2% methyl sulfone was added to cells for 10, 30, 60, 90, and 120 minutes. At each time point cells were placed in microtubule stabilizing buffer ( ) for 10 minutes followed by incubation in −20° C. methanol for 5 minutes. Cells were washed twice in 0.1% Triton X-100 in PBS at room temperature, then incubated with mouse monoclonal anti-alpha-tubulin antibody (Santa Cruz Biotech, Calif.; diluted 1/200 in 1% BSA/PBS) for 1.5 hours. Cells were washed 5 times in 0.1% Triton X-100/PBS, 3 minutes each. Cells were incubated with secondary antibody (Alexa Fluor 568 rabbit anti-mouse antibody; diluted 1/100 in 1%/PBS) for 30 minutes in the dark. Cells were washed five times in 0.1% Triton X-100/PBS, three minutes each. Cells were washed two times in PBS at 2 minute intervals and incubated with DAPI (1 μg/ml in PBS) for 5 minutes at room temperature and in the dark. Cells were washed in PBS for one minute. SlowFade was added to glass slides, coverslips were placed cell side down and sealed with nail polish. Microtubules were viewed at the Center for Cell Analysis and Modeling, University of Connecticut Health Center, Farmington, Conn., with an Axioplan CCD Microscope equipped with a 40×1.3 NA FL objective lens and Photometrics PXL-EEV37 high speed digital cooled CCD camera via Metamorph image acquisition and analysis software (Universal Imaging Corp., Downington, Pa.).
One assay to test stability of microtubules is to give cells increasing concentrations of a microtubule-disassembly drug and use immunofluorescence microscopy to assess microtubule lengths (Caron et al). A higher concentration of drug will be required to disassemble the more stabilized microtubules. We used different concentrations of the anti-microtubule drug, vinblastine, to assess microtubule stability in control cells and cells incubated with 2% methyl sulfone.

[4] = tested on: CEM cells, leukemic T-cell lymphocytes; assay: Apoptosis of leukemic lymphocytes, FITC-annexinV/propidium iodide microscopy; assay type: cell-based, human; conditions: 10^−7 M VNB, 20 hours
Procedure: as §1
CEM cells, leukemic T-cell lymphocytes obtained from a child with acute lymphocytic leukemia, were maintained in Petri dishes in MEM (minimal essential medium) with 7% fetal calf serum in a 5% CO2 incubator at 37° C. For experiments, methyl sulfone was added to the medium at concentrations from 0-6.0%. In control cells, no methyl sulfone was added. Cells (2×10^6 per ml) were incubated for 20 hrs in the presence or absence of methyl sulfone, and then assayed for apoptosis using FITC-annexinV/propidium iodide microscopy. Methyl sulfone was also compared to the anti-microtubule drug, vinblastine. Vinblastine (VNB) and its derivative, vincristine, are standard treatments for acute lymphocytic leukemia, as well as other cancers. We used the concentration of VNB that is found in the blood of subjects being treated with this drug (10^−7 M) (6,7).

SMILES	effect on melanoma cells of osmolarity control substance [1]	window of concentrations between killing cancer cells and harming normal cells [2]	other results
C[S+](C)[O-] [DMSO, dimethyl sulfoxide, reference compound]	had no effect	–	–
CCS(=O)(=O)CC [EES, ethyl ethyl sulfone, reference compound]	–	narrow differential	–
CCS(C)(=O)=O [MES, methyl ethyl sulfone, reference compound]	–	narrow differential	–
NC(N)=O [urea, reference compound]	induced necrotic death	–	–
CC[C@]1(O)C[C@@H]2CN(CCc3c([nH]c4ccccc34)[C@@](C(=O)OC)(c3cc4c(cc3OC)N(C)[C@H]3[C@@](O)(C(=O)OC)[C@H](OC(C)=O)[C@]5(CC)C=CCN6CC[C@]43[C@@H]65)C2)C1 [vinblastine, reference compound]	–	–	microtubules in control cells [3]: largely gone; apoptotic leukemic cells [4]: 48%
